Measurements from article PMC5365662, “A Short Double-Stapled Peptide Inhibits Respiratory Syncytial Virus Entry and Spreading” (Antimicrobial Agents and Chemotherapy, 2017).
Bridge positions count the residues as written; N and C are the ends. Square brackets hold non-standard residues; d marks the D form. Peptide text beside a SMILES is read from it. R8 = C=CCCCCCC[C@@](C)(N)C(=O)O; S5 = C=CCCC[C@](C)(N)C(=O)O

Columns and labels:
circular dichroism = conditions: 10 mM phosphate; pH 7.5; 25 °C; 50 uM
[1] = target: 5HB, a recombinant protein containing 3 HR1 domains covalently attached to 2 HR2 domains; conditions: competition with fluorescently labeled T108 probe (2 nM), 5HB 50 nM, 10 min preincubation + 30 min room temperature, duplicates
[2] = system: recombinant GFP-expressing RSV (strain A2) in A549 cells; assay type: cell-based, human respiratory syncytial virus; conditions: A549 cells, eGFP RSV, GFP-positive cells by FACS 24 h p.i.
Experimental: A549 cells were infected with a recombinant green fluorescent protein (GFP)-expressing RSV (strain A2) ([23]), and the inhibitory activity of the peptide was quantified by flow cytometry.
Each peptide was diluted 3 times by 2-fold serial dilutions. eGFP RSV virus at an MOI of 0.5 was used for the infection, and GFP-positive cells were counted by FACS analysis 24 h p.i. The GFP data were normalized to the fluorescence values observed with virus only and plotted as percent inhibition.
Serial 4-fold dilutions of inhibitors were mixed with eGFP-encoding RSV virus ([23]) with a volume of virus required to achieve approximately 50% of infection in medium containing 2% fetal calf serum. The resulting mixture was added to 24-well plates containing A549 cells. Cells were incubated for 2 h at 37°C, the medium was replaced, and cells were incubated for an additional 24 h. Cells were treated with 300 μl of trypsin for 10 min at 37°C, and the detached cells were diluted in 1 ml of culture medium. Following centrifugation at 1,700 rpm, the pellet was resuspended in 300 μl of PBS–1% fetal bovine serum (FBS) (vol/vol) and GFP-positive cells were counted by fluorescence-activated cell sorter (FACS) analysis. The GFP data were normalized to the fluorescence value observed with virus only. The resulting inhibition curves were fitted in Igor Pro as described above.

[3] = Far-UV circular dichroism, α-helical content; assay type: physicochemical; conditions: CD, indicator of α-helical stability
Experimental: The circular dichroism spectra were acquired on a Chirascan spectropolarimeter. The samples were prepared in 10 mM phosphate buffer, pH 7.5, at a peptide concentration of 50 μM. Data were recorded at 25°C by step scan from 180 nm to 260 nm in a 0.5-mm path length quartz cell using 1-nm wavelength increments and a response time of 1 s. The data were converted to per residue molar ellipticity units [θ] (degree per square centimeter per decimole per residue) and smoothed using the Igor Pro software. The percentage of helicity was calculated as described previously ([35]).

SMILES	helicity (circular dichroism) [%]	Kd [1] [µM]	inhibition of RSV-eGFP infection (in words) [2]	θ208/θ222 molar ellipticity ratio [3]
CC[C@H](C)[C@H](NC(=O)[C@H](CCCCN)NC(=O)[C@]1(C)CCCC=CCCCCCC[C@@](C)(NC(=O)[C@H](CC(=O)O)NC(=O)[C@H](Cc2ccccc2)NC(=O)[C@H](CCC(=O)O)NC(=O)[C@H](CC(=O)O)NC(=O)[C@H](CO)NC(=O)[C@@H]2CCCN2C(=O)[C@H](Cc2ccccc2)NC(=O)[C@H](CCC(=O)O)NC(C)=O)C(=O)N[C@@H](CO)C(=O)N[C@@H]([C@@H](C)CC)C(=O)N[C@@H](CO)C(=O)N[C@@H](CCC(N)=O)C(=O)N[C@@H](C(C)C)C(=O)N[C@@H](CC(N)=O)C(=O)N1)C(=O)N[C@@H](CC(N)=O)C(N)=O [Peptide 1b] (Ac-EFPSDEFD[R8]SISQVN[S5]KIN-NH2; staple 9-16)	19.8	47 ± 6	none	–
CC[C@H](C)[C@H](NC(=O)[C@H](CCCCN)NC(=O)[C@H](CCC(=O)O)NC(=O)[C@H](CC(N)=O)NC(=O)[C@@H](NC(=O)[C@H](CCC(N)=O)NC(=O)[C@H](CO)NC(=O)[C@@H](NC(=O)[C@H](CO)NC(=O)[C@H](C)NC(=O)[C@]1(C)CCCC=CCCC[C@](C)(NC(=O)[C@@H]2CCCN2C(=O)[C@H](Cc2ccccc2)NC(=O)[C@H](CCC(=O)O)NC(C)=O)C(=O)N[C@@H](CC(=O)O)C(=O)N[C@@H](CCC(=O)O)C(=O)N[C@@H](Cc2ccccc2)C(=O)N1)[C@@H](C)CC)C(C)C)C(=O)N[C@@H](CC(N)=O)C(N)=O [Peptide 1d] (Ac-EFP[S5]DEF[S5]ASISQVNEKIN-NH2; staple 4-8)	34.3	8 ± 4	none	–
CC[C@H](C)[C@H](NC(=O)[C@H](CCCCN)NC(=O)[C@]1(C)CCCC=CCCC[C@](C)(NC(=O)[C@@H](NC(=O)[C@H](CO)NC(=O)[C@]2(C)CCCC=CCCC[C@](C)(NC(=O)[C@H](CO)NC(=O)[C@@H]3CCCN3C(=O)[C@H](Cc3ccccc3)NC(=O)[C@H](CCC(=O)O)NC(C)=O)C(=O)N[C@@H](CCC(=O)O)C(=O)N[C@@H](Cc3ccccc3)C(=O)N[C@@H](CC(=O)O)C(=O)N2)[C@@H](C)CC)C(=O)N[C@@H](CCC(N)=O)C(=O)N[C@@H](C(C)C)C(=O)N[C@@H](CC(N)=O)C(=O)N1)C(=O)N[C@@H](CC(N)=O)C(N)=O [Peptide 1eg] (Ac-EFPS[S5]EFD[S5]SI[S5]QVN[S5]KIN-NH2; staple 5-9, 12-16)	35.3	24 ± 4	–	~1
CC[C@H](C)[C@H](NC(=O)[C@H](CCCCN)NC(=O)[C@H](CCC(=O)O)NC(=O)[C@H](CC(N)=O)NC(=O)[C@@H](NC(=O)[C@]1(C)CCCC=CCCC[C@](C)(NC(=O)[C@H](CC(=O)O)NC(=O)[C@H](Cc2ccccc2)NC(=O)[C@H](CCC(=O)O)NC(=O)[C@H](CC(=O)O)NC(=O)[C@H](CO)NC(=O)[C@@H]2CCCN2C(=O)[C@H](Cc2ccccc2)NC(=O)[C@H](CCC(=O)O)NC(C)=O)C(=O)N[C@@H](CO)C(=O)N[C@@H]([C@@H](C)CC)C(=O)N[C@@H](CO)C(=O)N1)C(C)C)C(=O)N[C@@H](CC(N)=O)C(N)=O [Peptide 1f] (Ac-EFPSDEFD[S5]SIS[S5]VNEKIN-NH2; staple 9-13)	35.2	7.4 ± 1.3	none	–
CC[C@H](C)[C@@H]1NC(=O)[C@H](Cc2ccccc2)NC(=O)[C@@](C)(NC(=O)[C@H](CC(C)C)NC(=O)[C@H](CO)NC(=O)[C@H](CCC(N)=O)NC(=O)[C@H](CCC(=O)O)NC(C)=O)CCCC=CCCC[C@@](C)(C(=O)N[C@@H](CO)C(=O)N[C@@H](CC(=O)O)C(=O)N[C@@H](CCC(=O)O)C(=O)N[C@@H](CC(C)C)C(=O)N[C@@H](CC(C)C)C(=O)N[C@@H](Cc2c[nH]cn2)C(=O)N[C@@H](CC(N)=O)C(=O)N[C@H](C(N)=O)C(C)C)NC(=O)[C@H](CCCNC(=N)N)NC1=O [Peptide 3a] (Ac-EQSL[S5]FIR[S5]SDELLHNV-NH2; staple 5-9)	33.9	5.8 ± 1.8	none	–
CC[C@H](C)[C@@H]1NC(=O)[C@H](Cc2ccccc2)NC(=O)[C@H](C)NC(=O)[C@H](CC(C)C)NC(=O)[C@H](CO)NC(=O)[C@](C)(NC(=O)[C@H](CCC(=O)O)NC(C)=O)CCCCCCC=CCCC[C@@](C)(C(=O)N[C@@H](CO)C(=O)N[C@@H](CC(=O)O)C(=O)N[C@@H](CCC(=O)O)C(=O)N[C@@H](CC(C)C)C(=O)N[C@@H](CC(C)C)C(=O)N[C@@H](Cc2c[nH]cn2)C(=O)N[C@@H](CC(N)=O)C(=O)N[C@H](C(N)=O)C(C)C)NC(=O)[C@H](CCCNC(=N)N)NC1=O [Peptide 3d] (Ac-E[R8]SLAFIR[S5]SDELLHNV-NH2; staple 2-9)	24.4	3.2 ± 2.7	none	–
CC[C@H](C)[C@H](NC(=O)[C@H](Cc1ccccc1)NC(=O)[C@H](C)NC(=O)[C@H](CC(C)C)NC(=O)[C@H](CO)NC(=O)[C@H](CCC(N)=O)NC(=O)[C@H](CCC(=O)O)NC(C)=O)C(=O)N[C@@H](CCCNC(=N)N)C(=O)N[C@]1(C)CCCCCCC=CCCC[C@@](C)(C(=O)N[C@H](C(N)=O)C(C)C)NC(=O)[C@H](Cc2c[nH]cn2)NC(=O)[C@H](CC(C)C)NC(=O)[C@H](CC(C)C)NC(=O)[C@H](CCC(=O)O)NC(=O)[C@H](CC(=O)O)NC(=O)[C@H](CO)NC1=O [Peptide 3f] (Ac-EQSLAFIR[R8]SDELLH[S5]V-NH2; staple 9-16)	26.4	4.1 ± 1.9	none	–
